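Assay format: 96-well plates, 48-hour exposure. TGI: total growth inhibition.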
Columns and labels:
Assay in all cases: DTP human tumour cell line panel, 48 h
[1] = system: U251 CNS
[2] = system: NCI-H226 lung
[3] = system: SK-OV-3 ovarian
[4] = system: K-562 leukemia
[5] = system: UACC-257 melanoma
[6] = system: IGROV1 ovarian
[7] = system: RPMI-8226 leukemia
[8] = system: SF-268 CNS
[9] = system: OVCAR-8 ovarian
[10] = system: NCI-H23 lung
[11] = system: HL-60(TB) leukemia
[12] = system: BT-549 breast
[13] = system: SF-539 CNS
[14] = system: NCI/ADR-RES ovarian
[15] = system: 786-0 renal
[16] = system: HCC-2998 colon
[17] = system: HS 578T breast
[18] = system: SF-295 CNS
[19] = system: UO-31 renal
[20] = system: MALME-3M melanoma

Measured: TGI

COc1cc(/C=C2/SC(c3ccccc3)N(c3ccc(Cl)cc3)C2=O)cc(OC)c1OC (stereo not given)
> 100 µM: all assays above

— PubChem BioAssay (NCI)
